Reference: patent publication US10682371B2, “Small molecule conjugates specifically activated in tumor microenvironment for targeting and use thereof” (priority 2014, dated 2020)
Like-named read-outs stand apart in the source and are kept apart here.

Legend:
tumor CD8+ T cells = type: in vivo, C57 mice
Description: (§1) 4) Analysis on tumor CD8+ T cells. The tumor tissue was homogenated and individual cells in the tumor were filtered, separated and washed by buffer twice, then cultivated with the leucocyte common antigen CD45-PE and CD8-FITC marked antibodies for 1 hour at ambient temperature. The cells were washed by phosphate buffer containing 1% fetal bovine serum twice and then analyzed for the ratio of the T lymphocyte antigen (CD8) positive cells in the leucocyte common antigen (CD45) positive cells by flow cytometry.
as §1, with “CD45-PE and T-lymphocyte antigen CD8-FITC marked” for “CD45-PE and CD8-FITC marked”, “flow cytometry. Increasement of the ratio indicates increased T lymphocyte cells and thus the animal immunity against the tumor was improved.” for “flow cytometry.”
as §1, with “cytometry. Increasement of the ratio indicates increased T lymphocyte cells and thus the animal immunity against the tumor was improved.” for “cytometry.”

D121 lung tumor cells = type: in vivo, C57 mice; details: Day 18
Description: 1) D121 lung tumor cells were purchased from ATCC. Cells were cultivated in DMEM culture solution containing 10% fetal bovine serum at 37° C. and 5% CO2. The cells were passaged for every three days and cells within the 15th passage were used.
(§2) 2) Tumor immunization. 5×10^5 D121 lung cancer cells (purchased from ATCC) which were killed by irradiation were intraperitoneally injected to mice. The mice were injected for 3 times, once every two weeks. After immunization, mice were injected with tumor cells and the drugs were administered weekly for 4 weeks.
3) Production of tumor. At day 32, 10^6 live lung tumor cells were subcutaneously injected to the back of the C57 mice immunized by tumor. Treatment began when the tumor grew to 0.3-0.4 cm.
as §2, with “4 weeks. In table 16 below the immune group was immuned with D121 lung tumor cells and the group without dead D121 lung tumor cells was injected with physiological saline as controls.” for “4 weeks.”
3) Production of tumor. After immunization (4 weeks later), 10^6 live lung tumor cells were subcutaneously injected to the back of the C57 mice immunized by tumor. Treatment began when the tumor grew to 0.3-0.4 cm. Tumor size (mm^3) were noted and tumor inhibition rates were calculated.
as §2, with “4 weeks. In the table below the immune group was immuned with D121 lung tumor cells and the group without dead D121 lung tumor cells was injected with physiological saline as controls.” for “4 weeks.”
3) Production of tumor. At day 32, 10^6 live D121 lung tumor cells were subcutaneously injected to the back of the C57 mice immunized by tumor. Treatment began when the tumor grew to 0.3-0.4 cm.
1) D121 lung tumor cells were purposed from ATCC. Cells were cultivated in DMEM culture solution containing 10% fetal bovine serum at 37° C. and 5% CO2. The cells were passaged for every three days and cells within the 15th passage were used.

[1] = tested on: Human breast cancer MDA-MB231 cells; type: in vivo, nude mice; details: MDA-MB231, nude mice, IV 13.2 μmol/kg once weekly for four weeks
Description: (§3) 1) Human breast cancer MDA-MB231 cells were purchased from American type culture collection (ATCC) and identified according the specification provided by ATCC. Cells were cultivated in Dulbecco's minimum essential medium (DMEM culture medium) containing 10% fetal bovine serum at 37° C. and 5% CO2. The cells were passaged for every three days and cells within the 15th passage were used.
2) Production of tumor. 5×10^6 MDA-MB231 cells were subcutaneously injected to the back of the nude mice. Mice were randomly grouped after the tumor reached at least 100 mm^3. Then treatment began and the day on which the treatment began was day 1.
3) Course of treatment. […] The drugs were administered once weekly for four weeks.
When R1 is 2-(2-Methoxyethoxy)Acetyl, and R3 is Ala, activation study and efficacy study were carried out by using compounds having different cleavable linker. The study methods are identical to those in Examples 10, 11 and 12. The in vitro activation efficiency was tested by asparagine endopeptidase and the tumor inhibition rate was tested by using human breast cancer MDA-MB231 model. […]

4T1 cells = assay: BALB/C mice model for tumor metastasis (4T1, lung metastases); type: in vivo; details: BALB/C mice, 4T1, lung metastases day 27, IV every three days for 4 times
Description: as §3, with “4T1” for “Human breast cancer MDA-MB231”, “DMEM” for “Dulbecco's minimum essential medium (DMEM”, “solution” for “medium)”
2) Production of tumor metastasis. 10^6 […] were subcutaneously injected to the back of the BALB/C mice. Mice were randomly grouped after the tumor grew to about 1.5 cm. The subcutaneous tumor was removed by surgery and drug treatment began. Mice were killed after anesthesia on day 27. The whole lung was taken out and put into Bouin's solution for staining. The number of the tumor metastasized to lung was counted with anatomical microscope.
(§4) The control group was administered by physiological saline. Drugs were administered once for every three days for 4 times.
as §4
According to the clinical application of B1, B2, B3 and B4, drugs were intravenously injected (IV). […] The control group was administered by physiological saline. Drugs were administered once for every three days for 4 times.
According to the clinical application of D1, D2, D3 and D4, drugs were intravenously injected (IV). […] The control group was administered by physiological saline. Drugs were administered once for every three days for 4 times.

[2] = tested on: Human prostate cancer PC-3 cells; assay: Tumor treatment in nude mice, PC-3 model (Example 51); type: in vivo; details: Table 48, nude mice, PC-3, IV once weekly for four weeks, D1-D4 25 mg/kg, Docetaxel […]
Description: as §3, with “prostate” for “breast”, “PC-3” for “MDA-MB231”, “DMEM” for “Dulbecco's minimum essential medium (DMEM”, “solution” for “medium)”
2) Production of tumor. 5×10^6PC-3 cells were subcutaneously injected to the back of the nude mice. Mice were randomly grouped after the tumor reached at least 100 mm^3. Then treatment began and the day on which the treatment began was day 1.
According to the clinical application of D1, D2, D3 and D4, drugs were intravenously injected (IV). […]. The control group was administered by physiological saline. Drugs were administered once weekly for four weeks.

[3] = tested on: Human prostate cancer PC-3 cells / Panc-1 cells; assay: Tumor treatment in nude mice (PC-3 cells purchased, Panc-1 cells injected; Examples 22, 32, 42); type: in vivo; details: Table 38, nude mice, IV once weekly for four weeks, B1-B4 25 mg/kg, Docetaxel […]
Description: as §3, with “prostate” for “breast”, “PC-3” for “MDA-MB231”, “DMEM” for “Dulbecco's minimum essential medium (DMEM”, “solution” for “medium)”
2) Production of tumor. 5×10^6Panc-1 cells were subcutaneously injected to the back of the nude mice. Mice were randomly grouped after the tumor reached at least 100 mm^3. Then treatment began and the day on which the treatment began was day 1.
The control group was administered by physiological saline. Drugs were administered once weekly for four weeks.
According to the clinical application of B1, B2, B3 and B4, drugs were intravenously injected (IV). […] The control group was administered by physiological saline. Drugs were administered once weekly for four weeks.

[4] = D121 immunized C57 mice, 13.2 μmol/kg, ratio of CD8 positive cells in CD45 positive cells of tumor
[5] = D121 immunized C57 mice, 13.2 μmol/kg weekly, PDL1 antibody 5 μg/kg where combined
[6] = Table 40, B1-B4 17.6 μmol/kg, Docetaxel 3 μmol/kg
[7] = Table 50, D1-D4 25 mg/kg, Docetaxel 4.2 mg/kg
[8] = Table 39, immunized C57 mice, D121, drugs 13.2 μmol/kg, PDL1-antibody 5 μg/kg, weekly for 4 weeks
[9] = Table 49, immunized C57 mice, D121, drugs 13.2 μmol/kg, PDL1 antibody 5 μg/kg, weekly for 4 weeks

Compound	Inhibitory rate on tumor Day 18 (D121 lung tumor cells; [5])	Size of tumor (mm^3) Day 18 (D121 lung tumor cells; [5])	Inhibitory rate on tumor (%) Day 10 [1]	Size of tumor (mm^3) Day 10 [1]	Inhibitory rate on tumor (%) Day 24 [1]	Size of tumor (mm^3) Day 24 [1]	CD8: D45 (%) (tumor CD8+ T cells; [4])	other results
CC[C@@]1(O)C(=O)OCc2c1cc1n(c2=O)Cc2cc3ccccc3nc2-1 [camptothecin]	34.47	889.56 ± 148.56 mm^3	15%	258.45 ± 57.43 mm^3	19%	847.46 ± 157.56 mm^3	–	CD8: CD45 (%) (tumor CD8+ T cells; [4]): 13.2%
CCCCCOC(=O)Nc1nc(=O)n([C@@H]2O[C@H](C)[C@@H](O)[C@H]2O)cc1F [capecitabine]	29.75	953.65 ± 245.43 mm^3	26%	225.53 ± 74.45 mm^3	9%	946.43 ± 275.86 mm^3	13.6%	–
COc1cccc2c1C(=O)c1c(O)c3c(c(O)c1C2=O)C[C@@](O)(C(C)=O)C[C@@H]3O[C@H]1C[C@H](N)[C@H](O)[C@H](C)O1 [daunorubicin]	21.63	1063.86 ± 317.56 mm^3	43%	174.78 ± 78.43 mm^3	17%	864.01 ± 67.45 mm^3	13.2%	–
Docetaxel [reference compound]	–	–	–	–	–	–	–	Inhibitory rate on metastasis (4T1 cells; [6]): 32.5; Number of metastasized tumor (4T1 cells; [6]): 85 ± 17; Inhibitory rate on metastasis (4T1 cells; [7]): 89.7; Number of metastasized tumor (4T1 cells; [7]): 156 ± 24; Size of tumor (mm^3) Day 10 ([2]; Day 10): 168.66 ± 79.43 mm^3; inhibitory rate on tumor Day 10 ([2]; Day 10): 51.3; Size of tumor (mm^3) Day 24 ([2]; Day 24): 313.75 ± 157.42 mm^3; inhibitory rate on tumor Day 24 ([2]; Day 24): 57.3; CD8: CD45 (%) (tumor CD8+ T cells; Table 39, CD8 positive cells in CD45 positive cells of tumor, flow cytometry, drugs 13.2 μmol/kg, PDL1-antibody 5 μg/kg): 5.4%; CD8: CD45 (%) (tumor CD8+ T cells; Table 49, CD8 positive cells in CD45 positive cells of tumor, flow cytometry, drugs 13.2 μmol/kg, PDL1 antibody 5 μg/kg): 6.9%; Size of tumor (mm^3) Day 10 ([3]; Day 10): 254.75 ± 146.55 mm^3; inhibitory rate on tumor Day 10 ([3]; Day 10): 11.1; Size of tumor (mm^3) Day 24 ([3]; Day 24): 263.65 ± 184.67 mm^3; inhibitory rate on tumor Day 24 ([3]; Day 24): 30.7; Size of tumor (mm^3) Day 18 (D121 lung tumor cells; [8]): 1242.30 ± 359.48 mm^3; inhibitory rate on tumor % Day 18 (D121 lung tumor cells; [8]): 23.33%; Size of tumor (mm^3) Day 18 (D121 lung tumor cells; [9]): 1268.64 mm^3; inhibitory rate on tumor % Day 18 (D121 lung tumor cells; [9]): 11.0%
